Results: paper PMC8600679, “Substituted Two- to Five-Ring Polycyclic Aromatic Compounds Are Potent Agonists of Atlantic Cod (Gadus morhua) Aryl Hydrocarbon Receptors Ahr1a and Ahr2a” (Environmental Science & Technology, 2021)
Like-named read-outs stand apart in the source and are kept apart here.

Experiments:
[1] = target: Atlantic cod Ahr1a (Gadus morhua, UniProt A0A6H1Z2L5); assay: cell-based; conditions: for Activation of Ahr1a (agonist or not): in vitro transactivation; for Ahr1a REP25: EC25 of TCDD divided by concentration of PAC giving 25% of TCDD response; for Efficacy compared to TCDD with Ahr1a: Welch's t-test, Supporting Table S6
Sequence of Atlantic cod Ahr1a (A0A6H1Z2L5 1-957): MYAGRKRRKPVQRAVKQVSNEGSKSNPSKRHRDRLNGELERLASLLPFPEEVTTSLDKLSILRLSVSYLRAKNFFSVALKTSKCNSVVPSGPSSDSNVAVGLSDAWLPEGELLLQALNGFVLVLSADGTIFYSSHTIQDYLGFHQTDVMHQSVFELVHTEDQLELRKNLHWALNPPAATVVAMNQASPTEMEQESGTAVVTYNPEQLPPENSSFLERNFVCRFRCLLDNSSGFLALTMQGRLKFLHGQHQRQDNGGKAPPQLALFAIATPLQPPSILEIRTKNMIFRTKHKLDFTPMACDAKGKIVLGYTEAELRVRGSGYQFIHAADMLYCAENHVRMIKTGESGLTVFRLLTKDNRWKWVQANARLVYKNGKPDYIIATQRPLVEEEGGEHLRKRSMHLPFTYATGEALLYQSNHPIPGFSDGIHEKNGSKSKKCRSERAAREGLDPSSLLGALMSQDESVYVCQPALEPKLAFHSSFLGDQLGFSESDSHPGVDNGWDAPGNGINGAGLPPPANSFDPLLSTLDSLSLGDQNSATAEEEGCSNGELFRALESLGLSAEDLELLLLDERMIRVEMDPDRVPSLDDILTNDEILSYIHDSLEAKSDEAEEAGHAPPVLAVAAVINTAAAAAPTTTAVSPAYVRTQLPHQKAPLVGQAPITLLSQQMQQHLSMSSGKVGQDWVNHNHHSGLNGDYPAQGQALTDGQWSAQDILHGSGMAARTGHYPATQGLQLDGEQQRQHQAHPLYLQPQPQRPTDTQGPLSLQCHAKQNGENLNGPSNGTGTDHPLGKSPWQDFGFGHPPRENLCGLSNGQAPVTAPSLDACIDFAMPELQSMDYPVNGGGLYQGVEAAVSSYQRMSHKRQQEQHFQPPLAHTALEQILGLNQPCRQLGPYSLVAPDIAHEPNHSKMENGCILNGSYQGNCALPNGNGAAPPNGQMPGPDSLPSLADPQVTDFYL
Sequence of Atlantic cod Ahr1a (A0A8C5CZZ9 1-645 partner): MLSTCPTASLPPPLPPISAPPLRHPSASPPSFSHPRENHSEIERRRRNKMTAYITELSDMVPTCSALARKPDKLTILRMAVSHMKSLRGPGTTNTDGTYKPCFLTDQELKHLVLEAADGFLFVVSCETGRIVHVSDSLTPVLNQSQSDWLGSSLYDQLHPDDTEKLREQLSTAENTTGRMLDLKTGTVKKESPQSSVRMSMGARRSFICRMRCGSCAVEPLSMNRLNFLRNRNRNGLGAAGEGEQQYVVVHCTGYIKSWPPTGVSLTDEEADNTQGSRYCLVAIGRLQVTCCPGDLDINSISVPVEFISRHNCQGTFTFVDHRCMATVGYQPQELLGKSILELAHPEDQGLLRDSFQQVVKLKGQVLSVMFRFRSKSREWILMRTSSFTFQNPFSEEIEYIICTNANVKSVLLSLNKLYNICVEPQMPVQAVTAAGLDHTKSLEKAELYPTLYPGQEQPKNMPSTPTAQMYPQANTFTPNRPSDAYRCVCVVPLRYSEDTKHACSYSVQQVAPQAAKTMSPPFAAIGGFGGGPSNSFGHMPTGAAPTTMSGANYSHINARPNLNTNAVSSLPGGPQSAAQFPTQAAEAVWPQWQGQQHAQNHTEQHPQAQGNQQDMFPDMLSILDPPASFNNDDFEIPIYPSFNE

[2] = target: T1, Atlantic cod Ahr2a (Gadus morhua, UniProt A0A6H1Z3G8); assay: cell-based; conditions: for Activation of Ahr2a (agonist or not): in vitro transactivation; for Ahr2a REP25: EC25 of TCDD divided by concentration of PAC giving 25% of TCDD response; for Efficacy compared to TCDD via Ahr2a: Welch's t-test, Supporting Table S6
T1 sequence (A0A6H1Z3G8 1-1127): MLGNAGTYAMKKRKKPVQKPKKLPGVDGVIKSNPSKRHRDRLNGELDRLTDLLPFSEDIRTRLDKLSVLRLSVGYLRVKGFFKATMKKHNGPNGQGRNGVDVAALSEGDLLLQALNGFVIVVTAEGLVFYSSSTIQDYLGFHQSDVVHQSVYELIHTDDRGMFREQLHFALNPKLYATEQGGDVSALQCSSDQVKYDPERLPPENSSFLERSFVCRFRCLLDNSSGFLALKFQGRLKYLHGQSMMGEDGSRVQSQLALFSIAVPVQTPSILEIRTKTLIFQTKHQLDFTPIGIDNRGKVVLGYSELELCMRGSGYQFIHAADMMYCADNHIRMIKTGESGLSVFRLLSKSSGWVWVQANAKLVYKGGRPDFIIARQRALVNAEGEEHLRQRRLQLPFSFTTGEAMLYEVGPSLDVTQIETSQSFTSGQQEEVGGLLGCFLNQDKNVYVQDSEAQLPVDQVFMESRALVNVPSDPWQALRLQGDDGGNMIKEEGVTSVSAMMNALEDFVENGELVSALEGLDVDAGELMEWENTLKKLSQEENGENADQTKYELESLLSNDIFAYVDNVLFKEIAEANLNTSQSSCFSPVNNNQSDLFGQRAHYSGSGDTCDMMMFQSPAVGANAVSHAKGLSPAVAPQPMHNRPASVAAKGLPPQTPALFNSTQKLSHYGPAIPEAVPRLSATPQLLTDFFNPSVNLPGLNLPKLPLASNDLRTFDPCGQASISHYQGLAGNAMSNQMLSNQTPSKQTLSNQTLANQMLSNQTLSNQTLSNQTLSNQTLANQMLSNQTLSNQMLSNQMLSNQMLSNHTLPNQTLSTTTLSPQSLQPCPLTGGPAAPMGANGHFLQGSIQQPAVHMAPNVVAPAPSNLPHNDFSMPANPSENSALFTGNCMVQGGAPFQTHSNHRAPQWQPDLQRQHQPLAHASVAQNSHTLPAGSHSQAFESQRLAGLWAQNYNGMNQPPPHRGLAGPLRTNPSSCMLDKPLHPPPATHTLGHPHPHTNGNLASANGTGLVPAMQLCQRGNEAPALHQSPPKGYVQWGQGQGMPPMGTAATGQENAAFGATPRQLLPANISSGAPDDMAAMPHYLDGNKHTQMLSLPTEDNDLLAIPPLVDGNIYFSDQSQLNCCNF

[3] = percent of maximum efficacy determined for TCDD, COS-7 cells, 24 h exposure, None = no agonistic response significantly different from solvent
[4] = COS-7 cells, 24 h exposure, read-out: Ahr1a EC50
[5] = Supplementary Table S5, read-out: Potency (EC50, nM) Ahr1a
[6] = percent of maximum efficacy determined for TCDD, COS-7 cells, 24 h exposure, None = no agonistic response significantly different from solvent, read-out: Ahr1a Relative Emax (%)
[7] = COS-7 cells, 24 h exposure, read-out: Ahr2a EC50
[8] = Supplementary Table S5, read-out: Potency (EC50, nM) Ahr2a
[9] = percent of maximum efficacy determined for TCDD, COS-7 cells, 24 h exposure, None = no agonistic response significantly different from solvent, read-out: Ahr2a Relative Emax (%)
[10] = Ahr1a EC50 (nM), COS-7 cells, 24 h exposure
[11] = COS-7, read-out: Ahr1a Relative Emax (%)
[12] = Ahr2a EC50 (nM), COS-7 cells, 24 h exposure
[13] = COS-7, read-out: Ahr2a Relative Emax (%)
[14] = COS-7, Supplementary Table S5, read-out: Efficacy (Emax, %) Ahr1a
[15] = COS-7, Supplementary Table S5, read-out: Efficacy (Emax, %) Ahr2a

Cc1ccc(C)c2c1ccc1ccccc12 [1,4-DMP, 1,4-Dimethylphenanthrene]
Activation of Ahr1a (agonist or not) [1]: did not activate
Ahr1a Relative Emax (%) [1, 3]: None
Activation of Ahr2a (agonist or not) [2]: did not activate
Ahr2a Relative Emax (%) [2, 3]: None

Cc1ccc2c(ccc3c(C)cccc32)c1 [1,7-DMP, 1,7-Dimethylphenanthrene]
Activation of Ahr1a (agonist or not) [1]: did not activate
Ahr1a Relative Emax (%) [1, 3]: None
Activation of Ahr2a (agonist or not) [2]: did not activate
Ahr2a Relative Emax (%) [2, 3]: None

COc1cccc2c1ccc1c3ccccc3ccc21 [1-MOC, 1-Methoxychrysene]
EC50 [1, 4]: 102 nM
Ahr1a REP25 [1]: 0.0277
EC50 [1, 5]: 102 nM
Efficacy compared to TCDD with Ahr1a [1]: efficacies similar to that of TCDD
Emax [1, 6]: 97.3%
EC50 [2, 7]: 160 nM
Ahr2a REP25 [2]: 0.0243
EC50 [2, 8]: 160 nM
Efficacy compared to TCDD via Ahr2a [2]: lower efficacies in comparison to TCDD
Emax [2, 9]: 66.4%

Cc1ccc2c(ccc3cc(C)ccc32)c1 [2,7-DMP, 2,7-Dimethylphenanthrene]
Activation of Ahr1a (agonist or not) [1]: did not activate
Ahr1a Relative Emax (%) [1, 3]: None
Activation of Ahr2a (agonist or not) [2]: did not activate
Ahr2a Relative Emax (%) [2, 3]: None

Oc1ccc2c(ccc3c4ccccc4ccc23)c1 [2-COH, Chrysene-2-ol]
EC50 [1, 10]: 325 nM
Emax [1, 11]: 91.1%
Ahr1a REP25 [1]: 0.00268
EC50 ([1]; Potency (EC50, nM) Ahr1a, Supplementary Table S5): 324 nM
Efficacy compared to TCDD with Ahr1a [1]: efficacies similar to that of TCDD
EC50 [2, 12]: 380 nM
Emax [2, 13]: 40.8%
Ahr2a REP25 [2]: 0.0038
Efficacy compared to TCDD via Ahr2a [2]: lower efficacies in comparison to TCDD

Cc1ccc2c(ccc3c4ccccc4ccc23)c1 [2-MC, 2-Methylchrysene]
Emax [1, 14]: 125%
EC50 [1, 4]: 22 nM
Ahr1a REP25 [1]: 0.324
Efficacy compared to TCDD with Ahr1a [1]: higher efficacies (superefficacies) than TCDD
Emax [1, 6]: 125%
Emax [2, 15]: 127%
EC50 [2, 7]: 41.8 nM
Efficacy compared to TCDD via Ahr2a [2]: superefficacies
Emax [2, 9]: 127%

COc1ccc2c(ccc3c4ccccc4ccc23)c1 [2-MOC, 2-Methoxychrysene]
EC50 [1, 4]: 13 nM
Ahr1a REP25 [1]: 0.244
Efficacy compared to TCDD with Ahr1a [1]: efficacies similar to that of TCDD
Emax [1, 6]: 95.9%
Emax [2, 15]: 114%
EC50 [2, 7]: 20.1 nM
Efficacy compared to TCDD via Ahr2a [2]: superefficacies
Emax [2, 9]: 115%

Cc1ccc2ccc3ccc(C)cc3c2c1 [3,6-DMP, 3,6-Dimethylphenanthrene]
Activation of Ahr1a (agonist or not) [1]: did not activate
Ahr1a Relative Emax (%) [1, 3]: None
Activation of Ahr2a (agonist or not) [2]: did not activate
Ahr2a Relative Emax (%) [2, 3]: None

CCc1ccc2ccc3ccccc3c2c1 [3-EP, 3-Ethylphenanthrene]
Activation of Ahr1a (agonist or not) [1]: did not activate
Ahr1a Relative Emax (%) [1, 3]: None
Activation of Ahr2a (agonist or not) [2]: did not activate
Ahr2a Relative Emax (%) [2, 3]: None

Cc1ccc2ccc3c4ccccc4ccc3c2c1 [3-MC, 3-Methylchrysene]
Emax [1, 14]: 110%
Ahr1a REP25 [1]: 0.0413
EC50 [1, 5]: 101 nM
Efficacy compared to TCDD with Ahr1a [1]: efficacies similar to that of TCDD
Emax [1, 6]: 111%
Emax [2, 15]: 102%
EC50 [2, 7]: 54 nM
Ahr2a REP25 [2]: 0.167
Emax [2, 9]: 102%

CCCc1ccc2ccc3ccccc3c2c1 [3-PP, 3-Propylphenanthrene]
Emax ([1]; COS-7, curve did not reach a plateau: relative response at the highest tested concentration, percent of TCDD maximum, read-out: Ahr1a Relative Emax (%), marked *): 42.5%
Ahr1a REP25 [1]: 0.00011
Activation of Ahr1a (agonist or not) [1]: activated both Ahr1a and Ahr2a
Activation of Ahr2a (agonist or not) [2]: activated both Ahr1a and Ahr2a
Emax [2, 9]: 12.4%

Oc1cccc2ccc3c4ccccc4ccc3c12 [4-COH, Chrysene-4-ol]
EC50 [1, 4]: 1340 nM
Ahr1a REP25 [1]: 0.00105
Efficacy compared to TCDD with Ahr1a [1]: efficacies similar to that of TCDD
Emax [1, 6]: 91.7%
Emax ([2]; COS-7, curve did not reach a plateau: relative response at the highest tested concentration, percent of TCDD maximum, read-out: Ahr2a Relative Emax (%), marked *): 98.8%
Ahr2a REP25 [2]: 0.0016
EC50 [2, 8]: 11000 nM

Cc1cccc2ccc3c4ccccc4ccc3c12 [4-MC, 4-Methylchrysene]
Emax [1, 14]: 112%
EC50 [1, 4]: 120 nM
Ahr1a REP25 [1]: 0.041
Efficacy compared to TCDD with Ahr1a [1]: higher efficacies (superefficacies) than TCDD
Emax [1, 6]: 113%
EC50 [2, 7]: 128 nM
Ahr2a REP25 [2]: 0.0217
EC50 [2, 8]: 128 nM
Efficacy compared to TCDD via Ahr2a [2]: lower efficacies in comparison to TCDD
Emax [2, 9]: 55.9%

c1ccc2c(c1)cc1ccc3cccc4ccc2c1c34 [BAP, Benzo[a]pyrene]
EC50 [1, 10]: 25.8 nM
Emax [1, 11]: 107%
Emax ([1]; COS-7, read-out: Efficacy (Emax, %) Ahr1a): 107%
Ahr1a REP25 [1]: 0.0956
Efficacy compared to TCDD with Ahr1a [1]: higher efficacies (superefficacies) than TCDD
Activation of Ahr1a (agonist or not) [1]: agonist for both Ahrs
EC50 [2, 12]: 6.8 nM
fold higher REP25 with Ahr2a compared to Ahr1a ([2]; Ahr2a versus Ahr1a): 5- to 10 fold
Emax [2, 13]: 103%
Emax ([2]; COS-7, read-out: Efficacy (Emax, %) Ahr2a): 103%
Activation of Ahr2a (agonist or not) [2]: agonist for both Ahrs

c1ccc2c(c1)sc1ccccc12 [DBT, Dibenzothiophene]
Activation of Ahr1a (agonist or not) [1]: did not activate
Ahr1a Relative Emax (%) [1, 3]: None
Activation of Ahr2a (agonist or not) [2]: did not activate
Ahr2a Relative Emax (%) [2, 3]: None

c1ccc2c(c1)Cc1ccccc1-2 [FLU, Fluorene]
Activation of Ahr1a (agonist or not) [1]: did not activate
Ahr1a Relative Emax (%) [1, 3]: None
Activation of Ahr2a (agonist or not) [2]: did not activate
Ahr2a Relative Emax (%) [2, 3]: None

c1ccc2ccccc2c1 [NAP, Naphthalene]
Activation of Ahr1a (agonist or not) [1]: did not activate
Ahr1a Relative Emax (%) [1, 3]: None
Activation of Ahr2a (agonist or not) [2]: did not activate
Ahr2a Relative Emax (%) [2, 3]: None

c1ccc2c(c1)ccc1ccccc12 [PHE, Phenanthrene]
Activation of Ahr1a (agonist or not) [1]: did not activate
Ahr1a Relative Emax (%) [1, 3]: None
Activation of Ahr2a (agonist or not) [2]: did not activate
Ahr2a Relative Emax (%) [2, 3]: None
